Key:
[1] = Conversion rate of salt-form prodrugs to parent compound in HEPES buffer solution; assay type: physicochemical; conditions: conversion to Compound 1, HEPES buffer pH 7.4, 37 °C
Procedure: Adjust the pH to 7.4 using 0.5 M NaOH, then dilute to a final volume 100 mL with distilled water.
(§1) Sample Analysis: Dissolve 0.6 mg of the compound in 250 µl of deionized water separately. Add 250 µl of mouse serum or HEPES 7.4 solution to the sample, incubate at a constant temperature of 37 °C, and collect samples at different time points. Pipette 20 µl of the sample to an EP tube, add 60 µl of methanol, vortex to mix thoroughly, and centrifuge at 12,000 rpm at 4 °C for 10 min. At 1 h, 2 h, 4 h, 8 h, and 12 h respectively, collect the supernatant for HPLC analysis. Inject 10 µL of sample and record the corresponding peak areas.

[2] = Conversion rate of salt-form prodrugs to parent compound in mouse plasma; assay type: in vitro ADME; conditions: conversion to Compound 1, mouse plasma, 37 °C
Procedure: Pharmaceutically acceptable salts of guaiane-type sesquiterpene lactone derivatives were selected and evaluated for their conversion rates to Compound 1 and Compound 83 in plasma and HEPES buffer, with results shown in Tables 2-1, 2-2, 3-1, and 3-2.
Plasma Preparation: Collect mouse plasma into an EP tube pre-loaded with sodium heparin, centrifuge at 8000 rpm for 10 minutes at 4°C, and then collect the supernatant.
as §1, with “areas. Chromatographic conditions: Hanbang C18 column (4.6 × 250 mm, 5 µm); mobile phase: acetonitrile: […] ammonium formate solution = 60:40; flow rate 1.0 mL/min; detection wavelength 210 nm; column temperature 30 °C. [drawing 171] Table 2-1. Conversion Rate of Compounds 20-42 to Compound 1 at Different Time Points in HEPES Buffer Solution” for “areas.”

Row | Structure (SMILES) | Release rate ([1]; 1 h) | Release rate ([1]; 2 h) | Release rate ([1]; 4 h) | Release rate ([1]; 8 h) | Release rate ([1]; 12 h) | Release rate ([2]; 1 h) | Release rate ([2]; 2 h) | Release rate ([2]; 4 h) | Release rate ([2]; 8 h) | Release rate ([2]; 12 h)
1 | C[C@@]12CC[C@@H]3[C@H](OC(=O)[C@H]3CN3CCCC3)[C@@H]3[C@]1(CC[C@@]3(C)O)C2 [compound 22] | 6.4% | 14.8% | 26.6% | 41.3% | 53.7% |  |  |  |  | 
2 | CCOC(=O)[C@@H]1CCCN1C[C@@H]1C(=O)O[C@H]2[C@H]1CC[C@@]1(C)C[C@]13CC[C@@](C)(O)[C@H]23 [compound 23] | 6.2% | 14.3% | 26.8% | 41.1% | 52.8% | 7.2% | 14.3% | 26.8% | 45.1% | 52.8%
3 | C[C@@]12CC[C@@H]3[C@H](OC(=O)[C@H]3CN3CCCCC3)[C@@H]3[C@]1(CC[C@@]3(C)O)C2 [compound 24] | 6.8% | 15.1% | 26.7% | 42.8% | 54.0% | 7.7% | 17.1% | 27.7% | 47.8% | 57.9%
4 | C[C@@]12CC[C@@H]3[C@H](OC(=O)[C@H]3CN3CCOCC3)[C@@H]3[C@]1(CC[C@@]3(C)O)C2 [compound 25] | 6.8% | 14.1% | 26.1% | 42.8% | 51.8% | 6.8% | 14.1% | 25.7% | 43.8% | 51.8%
5 | C[C@@]12CC[C@@H]3[C@H](OC(=O)[C@H]3CN3CCNCC3)[C@@H]3[C@]1(CC[C@@]3(C)O)C2 [compound 26] | 6.8% | 16.1% | 27.3% | 43.5% | 55.6% |  |  |  |  | 
6 | CCN1CCN(C[C@@H]2C(=O)O[C@H]3[C@H]2CC[C@@]2(C)C[C@]24CC[C@@](C)(O)[C@H]34)CC1 [compound 27] |  |  |  |  |  | 7.9% | 17.4% | 28.4% | 48.2% | 59.1%
7 | CCN(CC)C[C@@H]1C(=O)O[C@H]2[C@H]1CC[C@@]1(C)C[C@]13CC[C@@](C)(O)[C@H]23 [compound 28] | 6.8% | 14.5% | 24.4% | 40.4% | 50.0% | 6.8% | 14.5% | 24.4% | 40.4% | 49.1%
8 | CCCN(CCC)C[C@@H]1C(=O)O[C@H]2[C@H]1CC[C@@]1(C)C[C@]13CC[C@@](C)(O)[C@H]23 [compound 29] | 6.8% | 14.2% | 24.6% | 40.2% | 49.8% | 6.8% | 14.2% | 24.6% | 40.2% | 49.0%
9 | CCCCN(CCCC)C[C@@H]1C(=O)O[C@H]2[C@H]1CC[C@@]1(C)C[C@]13CC[C@@](C)(O)[C@H]23 [compound 30] | 6.6% | 14.6% | 23.8% | 40.8% | 49.8% | 6.6% | 13.6% | 23.8% | 40.8% | 48.8%
10 | CC(C)N(C[C@@H]1C(=O)O[C@H]2[C@H]1CC[C@@]1(C)C[C@]13CC[C@@](C)(O)[C@H]23)C(C)C [compound 31] | 6.7% | 14.0% | 23.0% | 41.2% | 49.5% | 6.5% | 13.9% | 24.4% | 40.2% | 48.5%
11 | C[C@@]12CC[C@@H]3[C@H](OC(=O)[C@H]3CN3CC4CCCC4C3)[C@@H]3[C@]1(CC[C@@]3(C)O)C2 (stereo partly drawn) [compound 32] | 6.9% | 15.4% | 26.2% | 42.2% | 51.2% | 6.3% | 14.4% | 25.2% | 43.2% | 51.4%
12 | C[C@@]12CC[C@@H]3[C@H](OC(=O)[C@H]3CN3CCC3)[C@@H]3[C@]1(CC[C@@]3(C)O)C2 [compound 33] | 6.9% | 15.8% | 26.0% | 41.8% | 51.1% | 6.9% | 14.8% | 26.0% | 42.8% | 50.7%
13 | C[C@@]12CC[C@@H]3[C@H](OC(=O)[C@H]3CN3CCC4(CCCC4)CC3)[C@@H]3[C@]1(CC[C@@]3(C)O)C2 [compound 34] | 7.0% | 16.2% | 27.6% | 43.6% | 54.4% | 7.8% | 17.2% | 28.6% | 47.6% | 58.8%
14 | C[C@@]12CC[C@@H]3[C@H](OC(=O)[C@H]3CN3CCC(N4CCCCC4)CC3)[C@@H]3[C@]1(CC[C@@]3(C)O)C2 [compound 35] | 6.8% | 14.6% | 26.4% | 43.8% | 52.5% | 6.8% | 13.6% | 26.4% | 44.8% | 52.5%
15 | C[C@@]12CC[C@@H]3[C@H](OC(=O)[C@H]3CN3CCC(N4CCOCC4)CC3)[C@@H]3[C@]1(CC[C@@]3(C)O)C2 [compound 36] | 6.9% | 14.8% | 26.0% | 43.6% | 52.4% | 6.6% | 14.8% | 26.0% | 43.6% | 52.1%
16 | C[C@@]12CC[C@@H]3[C@H](OC(=O)[C@H]3CN3CCC4(CC3)CC4)[C@@H]3[C@]1(CC[C@@]3(C)O)C2 [compound 37] | 7.2% | 16.8% | 28.3% | 44.1% | 65.8% | 8.2% | 17.8% | 29.3% | 48.1% | 67.8%
17 | C[C@@]12CC[C@@H]3[C@H](OC(=O)[C@H]3CN3CCCCCCC3)[C@@H]3[C@]1(CC[C@@]3(C)O)C2 [compound 38] | 6.9% | 14.8% | 25.4% | 41.4% | 50.7% | 6.1% | 14.5% | 25.4% | 41.4% | 49.7%
18 | CN(C)C[C@@H]1C(=O)O[C@H]2[C@H]1CC[C@@]1(C)C[C@]13CC[C@@](C)(O)[C@H]23 [compound 39] | 6.6% | 15.0% |  | 42.7% | 54.3% | 6.6% | 14.0% |  | 43.6% | 52.8%
19 | CN(C)C[C@@H]1C(=O)O[C@H]2[C@H]1CC[C@@]1(C)C[C@]13CC[C@@](C)(O)[C@H]23 [compound 40] | 6.8% | 14.6% |  | 44.0% | 50.2% | 6.7% | 14.2% |  | 44.0% | 52.6%

Reference: EP4813381A1, “PHARMACEUTICAL USE OF GUAIANE SESQUITERPENE DERIVATIVE” (Nanjing University Of Chinese Medicine, priority 2023, dated 2025)
